Consider 11 compounds from article PMC9088016, “Synthesis and biological evaluation of phosphatidylcholines with cinnamic and 3-methoxycinnamic acids with potent antiproliferative activity” (RSC Advances, 2018).

Where two headings read alike, the source gives them in different places.

The test system of assay [1] is LoVo/DX cells. The assay is described as follows: Antiproliferative assay in vitro (SRB), 72 h. The class given is cell-based, human. To be noted: for Resistance index (RI): doxorubicin-resistant LoVo/DX cell line versus LoVo; for IC50: doxorubicin-resistant colon cancer cells, SRB, 72 h exposure, mean ± SD. As to the method:
(§1) Biophenotypic B myelomonocytic leukaemia MV4-11, human lung carcinoma A549, human breast carcinoma MCF-7, human colon carcinoma LoVo, its drug resistant line LoVo/DX, liver carcinoma HepG2, and normal mouse fibroblast BALB/3T3 cells were obtained from the American Type Culture Collection (Rockville, Maryland, USA). All lines are being maintained at the Institute of Immunology and Experimental Therapy, Wrocław, Poland. All cell lines were grown in a humid atmosphere at 37 °C with 5% CO2 and were cultured in media according to the method described before.[18]
(§2) Prior to usage, the compounds were dissolved in DMSO to the concentration of 25 or 50 mM, and subsequently diluted in the culture medium to reach the required concentrations (ranging from 5 to 625 μM).
(§3) Twenty-four hours before addition of the tested compounds, the cells were plated in 96-well plates (Sarstedt, USA) at a density of 10^4 cells per well. All cell lines were exposed to each tested phosphatidylcholines for 72 h. Cells were also exposed to the commercially available drugs cisplatin and doxorubicin. Cell lines were also exposed to the solvent used for the tested compounds (DMSO) at concentrations corresponding to those present in the tested agents' dilutions. For adherent cells, a SRB assay was performed and an MTT assay was performed for leukaemia cells.
(§4) The cytotoxicity assay was performed after 72 h exposure of the cultured cells to varying concentrations (from 5 to 625 μM) of the tested agents. The cells attached to the plastic were fixed in situ by gently adding 50 μL per well of cold 50% TCA (trichloroacetic acid). The plates were incubated at 4 °C for 1 h and then washed five times with tap water. The background optical density was measured in the wells filled with culture medium, without the cells. The cellular material fixed with TCA was stained with 50 μL of 0.4% sulforhodamine B (SRB) dissolved in 1% acetic acid for 30 min. Unbound dye was removed by rinsing (4×) with 1% acetic acid. The protein-bound dye was extracted with 10 mM unbuffered Tris base for determination of the optical density (at 540 nm) in a computer-interfaced 96-well microtiter plate reader Multiskan RC photometer (Labsystems, Helsinki, Finland). Each compound in the given concentration was tested in triplicate in each experiment, which was repeated 3–5 times.
(§5) The results of the cytotoxic activity in vitro were expressed as IC50—the concentration of compound (in μM) that inhibits the proliferation rate of the tumor cells by 50% as compared to control untreated cells.

Assay [2] deals with HepG2 cells. The assay is described as follows: Antiproliferative assay in vitro (SRB), 72 h. The assay is classed as cell-based, human. As to conditions: 72 h exposure, mean ± SD. As to the method: as §1, §2, §3, §4, §5
Assay [3] deals with LoVo cells. The assay is described as follows: Antiproliferative assay in vitro (SRB), 72 h. The class given is cell-based, human. To be noted: colon cancer cells, 72 h exposure, mean ± SD. The method, then: as §1, §2, §3, §4, §5
The subject of assay [4] is MCF-7 cells. The assay is described as follows: Antiproliferative assay in vitro (SRB), 72 h. The assay is classed as cell-based, human. To be noted: 72 h exposure, mean ± SD. As to the method:
as §1, §2, §3, §4, §5

Assay [5] concerns A549 cells. The assay is described as follows: Antiproliferative assay in vitro (SRB), 72 h. The assay is classed as cell-based, human. As to conditions: 72 h exposure, mean ± SD, read-out: IC50 A-549. As to the method: as §1, §2, §3, §4, §5
Assay [6] relates to MV4-11 cells. The assay is described as follows: Antiproliferative assay in vitro (MTT), 72 h. To be noted: leukaemia cells; for IC50: MTT, 72 h exposure, mean ± SD; for Fold lower IC50 than free cinnamic / 3-methoxycinnamic acid: versus corresponding free acid. The assay is classed as cell-based, human. The method, then:
as §1, §2, §3
This technique was applied for the cytotoxicity screening against leukemia cells. An assay was performed after 72 h exposure to varying concentrations (from 5 to 625 μM) of the tested agents. For the last 3–4 hours of incubation. 20 μL of MTT solution was added to each well (MTT: 3-(4,5-dimethylthiazol-2-yl)-2,5-diphenyl tetrazolium bromide; stock solution: 5 mg mL^−1, Sigma, Germany). The mitochondria of viable cells reduce the pale yellow MTT to a navy blue formazan: the more viable cells are present in a well, the more MTT will be reduced to formazan. When the incubation time was completed, 80 μL of the lysing mixture was added to each well (lysing mixture: 225 mL dimethylformamide, 67.5 g sodium dodecyl sulphate, and 275 mL of distilled water). After 24 h, when formazan crystals had been dissolved, the optical densities of the samples were read with a Multiskan RC photometer at 570 nm wavelength. Each compound in a given concentration was tested in triplicate in each experiment, which was repeated 3–5 times.
as §5

Assay [7] deals with BALB/3T3 cells. Briefly: Antiproliferative assay in vitro (SRB), 72 h. The class given is cell-based, mouse. As to conditions: 72 h exposure, mean ± SD. As to the method:
as §1, §2, §3, §4, §5

[8] abbreviates: Homo sapiens, HepG2, liver cancer cells.
[9] abbreviates: Homo sapiens, MCF7, breast cancer cells.
The mark [10] stands for this setting: Homo sapiens, A549, lung cancer cells.
Where [11] appears, read: Mus musculus, BALB/3T3, normal mice fibroblast cells.

For “1-(3-Methoxycinnamoyl)-2-hydroxy-sn-glycero-3-phosphocholine [Compound 9b]”, the “Resistance index (RI)” value in assay [1] turned out to be 1.88. In addition, the IC50 (commonly the point on the concentration scale where inhibition reaches its midpoint) was determined as 160 ± 61.7 µM in assay [1]; 272 ± 33.1 µM in assay [2] (liver cancer cells); 85.1 ± 11.9 µM in assay [3]; 84.1 ± 7.4 µM in assay [4] (breast cancer cells); 259 ± 16.7 µM in assay [5] (lung cancer cells); 30.5 ± 8.2 µM in assay [6]. This compound came in with an IC50 in assay [7] (normal mice fibroblast cells) of 154 ± 66.4 µM. In assay [6], the “Fold lower IC50 than free cinnamic / 3-methoxycinnamic acid” value stood at 11 fold.

Turning to “1-Cinnamoyl-2-hydroxy-sn-glycero-3-phosphocholine [Compound 9a]”, the “Resistance index (RI)” value in assay [1] was 2.13. For the same compound, the “Ability to overcome drug resistance” value in assay [1] (doxorubicin-resistant LoVo/DX cell line, judged from RI) is given as “moderate ability to overcome drug resistance”. Moreover, the IC50 in assay [1] is 238.2 ± 2.3 µM; in assay [2] (liver cancer cells), 290 ± 19.4 µM; in assay [3] it was 112 ± 26.3 µM; in assay [4] (breast cancer cells), 104 ± 4.4 µM; in assay [5] (lung cancer cells) it was 287.1 ± 2 µM; in assay [6] it was 44.3 ± 5.1 µM. This compound showed an IC50 in assay [7] (normal mice fibroblast cells) of 160 ± 45.7 µM. Moreover, in assay [6], the “Fold lower IC50 than free cinnamic / 3-methoxycinnamic acid” value turned out to be 8 fold.

As for `N.N.[Cl][Pt][Cl]` [Cisplatin, cisplatin, reference compound], the IC50 in assay [1] was found to be 3.17 ± 0.2 µM; in assay [2] (liver cancer cells), 2.38 ± 0.64 µM; in assay [3] it was 2.56 ± 0.4 µM; in assay [4] (breast cancer cells) it was 8.1 ± 0.03 µM; in assay [5] (lung cancer cells), 8.6 ± 0.7 µM; in assay [6], 1.3 ± 0.47 µM. The midpoint of inhibition in assay [7] (normal mice fibroblast cells), the IC50, lay at 4.2 ± 1.1 µM.

`O=C(O)/C=C/c1ccccc1` [Compound 1a, Cinnamic acid]: the IC50 in assay [1] (Homo sapiens, LoVo/DX) was above 625 µM; in assay [2] (setting [8]), above 625 µM; in assay [3] (Homo sapiens, LoVo) it was 284 ± 26.6 µM; in assay [4] (setting [9]) it was 480 ± 46.2 µM; in assay [5] (setting [10]), above 625 µM; in assay [6] (Homo sapiens, MV4-11), 359 ± 105 µM. This compound returned an IC50 in assay [7] (setting [11]) above 625 µM.

For the compound `COc1cccc(C=CC(=O)O)c1` [Compound 1b, 3-methoxycinnamic acid], the IC50 is above 625 µM in assay [1] (Homo sapiens, LoVo/DX); above 625 µM in assay [2] (setting [8]); 233 ± 15.5 µM in assay [3] (Homo sapiens, LoVo); 420 ± 56.2 µM in assay [4] (setting [9]); above 625 µM in assay [5] (setting [10]); 339 ± 111 µM in assay [6] (Homo sapiens, MV4-11). The IC50 in assay [7] (setting [11]) worked out at 506 ± 67.7 µM.

Regarding `C[N+](C)(C)CCOP(=O)([O-])OC[C@@H](COC(=O)C=Cc1ccccc1)OC(=O)C=Cc1ccccc1` [Compound 3a, 1,2-Dicinnamoyl-sn-glycero-3-phosphocholine], the IC50 in assay [1] (Homo sapiens, LoVo/DX) was 329 ± 12.5 µM; in assay [2] (setting [8]), above 625 µM; in assay [3] (Homo sapiens, LoVo), 200 ± 49.7 µM; in assay [4] (setting [9]), 321 ± 11.1 µM; in assay [5] (setting [10]), above 625 µM; in assay [6] (Homo sapiens, MV4-11) it was 215 ± 51.9 µM. Moreover, in assay [7] (setting [11]), the IC50 was above 625 µM. Also, the “Resistance index (RI)” value in assay [1] amounted to 1.65.

For `COc1cccc(C=CC(=O)OC[C@H](COP(=O)([O-])OCC[N+](C)(C)C)OC(=O)C=Cc2cccc(OC)c2)c1` [Compound 3b, 1,2-Di(3-methoxycinnamoyl)-sn-glycero-3-phosphocholine], the concentration for half-maximal inhibition (IC50) in assay [1] (Homo sapiens, LoVo/DX) stood at 32.1 ± 16.9 µM; in assay [2] (setting [8]), 83.6 ± 45.1 µM; in assay [3] (Homo sapiens, LoVo) it was 210 ± 22.2 µM; in assay [4] (setting [9]) it was 307 ± 12.5 µM; in assay [5] (setting [10]), 286 ± 5.3 µM; in assay [6] (Homo sapiens, MV4-11), 165 ± 25.4 µM. The compound further gave an IC50 in assay [7] (setting [11]) of 297 ± 56.4 µM. For the same compound, in assay [1], the “Resistance index (RI)” value amounted to 0.15.

Take `CCCCCCCCCCCCCCCC(=O)OC[C@H](COP(=O)([O-])OCC[N+](C)(C)C)OC(=O)C=Cc1cccc(OC)c1` [Compound 5b, 1-Palmitoyl-2-3-methoxycinnamoyl-sn-glycero-3-phosphocholine]: the IC50 in assay [1] (Homo sapiens, LoVo/DX) came out at 69.9 ± 6.3 µM; in assay [2] (setting [8]) it was 295 ± 11.4 µM; in assay [3] (Homo sapiens, LoVo), 70.4 ± 5.4 µM; in assay [4] (setting [9]), 224 ± 9.5 µM; in assay [5] (setting [10]), 193 ± 27.4 µM; in assay [6] (Homo sapiens, MV4-11), 83.2 ± 4 µM. In assay [7] (setting [11]), this compound registered an IC50 of 257 ± 52.4 µM. Also, the “Resistance index (RI)” value in assay [1] is recorded as 0.99.

Take `CCCCCCCCCCCCCCCC(=O)O[C@H](COC(=O)C=Cc1ccccc1)COP(=O)([O-])OCC[N+](C)(C)C` [Compound 10a, 1-Cinnamoyl-2-palmitoyl-sn-glycero-3-phosphocholine]: the IC50 in assay [1] (Homo sapiens, LoVo/DX) amounted to 66 ± 8.7 µM; in assay [2] (setting [8]), 283 ± 5.2 µM; in assay [3] (Homo sapiens, LoVo) it was 63 ± 14.4 µM; in assay [4] (setting [9]) it was 127 ± 28.3 µM; in assay [5] (setting [10]), 61.9 ± 3.7 µM; in assay [6] (Homo sapiens, MV4-11), 88.7 ± 28.9 µM. Besides, the IC50 in assay [7] (setting [11]) came out at 208 ± 30.7 µM. In assay [1], the “Resistance index (RI)” value was found to be 1.05.

Regarding `CCCCCCCCCCCCCCCC(=O)O[C@H](COC(=O)C=Cc1cccc(OC)c1)COP(=O)([O-])OCC[N+](C)(C)C` [Compound 10b, 1-3-Methoxycinnamoyl-2-palmitoyl-sn-glycero-3-phosphocholine], the IC50 in assay [1] (Homo sapiens, LoVo/DX) worked out at 254 ± 11.6 µM; in assay [2] (setting [8]) it was 296 ± 13.2 µM; in assay [3] (Homo sapiens, LoVo), 211.6 ± 1.3 µM; in assay [4] (setting [9]), 214 ± 89.6 µM; in assay [5] (setting [10]), 280 ± 8.8 µM; in assay [6] (Homo sapiens, MV4-11) it was 236 ± 46.3 µM. This compound yielded an IC50 in assay [7] (setting [11]) of 291 ± 5.6 µM. Moreover, the “Resistance index (RI)” value in assay [1] came to 1.2.

Consider `COc1cccc2c1C(=O)c1c(O)c3c(c(O)c1C2=O)C[C@@](O)(C(=O)CO)C[C@@H]3O[C@H]1C[C@H](N)[C@H](O)[C@H](C)O1` [Doxorubicin, doxorubicin, reference compound], for which the “Resistance index (RI)” value in assay [1] came to 55.81.
